Assay results reported in patent US11447490B2, “Aromatic heterocyclic substituted olefin compound, preparation method for same, pharmaceutical composition of same, and applications thereof” (SHANGHAI YINGLI PHARMACEUTICAL CO., LTD, priority 2018, dated 2022).

target: ALK5 (Homo sapiens (Human), UniProt P36897); test: Evaluation experiment of ALK5 enzyme activity inhibition IC50 (ADP-Glo kinase assay); type: biochemical; conditions: not given
Method: 1. Preparation of a 1× kinase buffer: 40 mM Tris (pH 7.5), 20 mM MgCl2, 0.10% BSA, 1 mM DTT.
2. Compound preparation: The final detection concentration of the compound was 10 μM, which was prepared to a 100-fold concentration, i.e., 1 mM. 100 μL of the 100-fold compound was added in the second well of the 384-well plate, and 60 μL of 100% DMSO was added to the other wells. […] 50 nL of the compound was transferred to the reaction plate with echo.
3. Kinase reaction: The kinase was added to a 1× kinase buffer to form a 2× enzyme solution. […] The polypeptide TGFbR1 (purchased from Signal Chem, catalog number T36-58) and ATP were added to a 1× kinase buffer to form a 2× substrate solution. The final concentration of the substrate solution was peptide TGFbR1 0.1 mg/mL, ATP 7 μM. 2.5 μL of the 2× enzyme solution was added to the 384-well reaction plate (there was already 50 nL of 100% DMSO dissolved compound), and a 1× kinase buffer was added to a negative control well. The reaction solution was incubated at room temperature for 10 minutes. 2.5 μL of 2× substrate solution was added to the 384-well reaction plate. The 384-well plate was covered and incubated at 30° C. for 1 hour. ADP-Glo reagent (purchased from Promege, catalog number v9102) was equilibrated to room temperature. 5 μL of ADP-Glo reagent was transferred to the reaction well of the 384-well plate to stop the reaction.
4. Detection of reaction results: 10 μL of kinase detection reagent was transferred to each well, shaken for 1 minute, and let stand at room temperature for 30 minutes. The sample luminescence value was read at Synegy.
5. Curve fitting: The data of the luminescence reading were copied from the Synegy program. The value of the luminescence reading was converted to inhibition percentage by a formula (inhibition percentage=(max−sample RLU)/(max−min)×100, where “min” was a fluorescence reading for a control sample without enzyme; “max” was a fluorescence reading for a sample with DMSO as a control). The data were imported into MS Excel and GraphPad Prism was used for curve fitting. IC50 value was calculated.

Chain of ALK5 (P36897 34-503): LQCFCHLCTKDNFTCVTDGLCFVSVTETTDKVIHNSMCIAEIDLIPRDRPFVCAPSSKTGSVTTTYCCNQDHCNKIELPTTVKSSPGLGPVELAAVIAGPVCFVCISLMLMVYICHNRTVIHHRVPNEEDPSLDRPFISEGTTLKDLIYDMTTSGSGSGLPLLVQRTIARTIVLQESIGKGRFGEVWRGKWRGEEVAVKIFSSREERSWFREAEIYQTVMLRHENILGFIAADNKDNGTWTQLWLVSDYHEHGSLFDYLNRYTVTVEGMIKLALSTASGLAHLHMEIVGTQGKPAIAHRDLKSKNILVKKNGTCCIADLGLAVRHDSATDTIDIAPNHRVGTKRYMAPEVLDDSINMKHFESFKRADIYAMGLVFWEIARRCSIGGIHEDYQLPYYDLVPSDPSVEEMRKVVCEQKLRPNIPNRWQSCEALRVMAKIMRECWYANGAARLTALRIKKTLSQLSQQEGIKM

Row | SMILES | IC50
1 | NC(=O)c1cnc2ccc(/C=C\c3cccc(C(F)(F)F)n3)cn12 [Compound 11] | 10 nM

same assay, conditions: ALK5 25 nM, peptide TGFbR1 0.1 mg/mL, ATP 7 μM, 30° C. 1 hour, ADP-Glo luminescence

Row | SMILES | IC50
2 | Cc1cccc(/C=C\c2ccc3ncc(C(=O)NC4CC4)n3c2)n1 [Compound 4] | 17 nM
3 | Cc1cccc(C2=C(c3ccc4ncc(C(N)=O)n4c3)CCCC2)n1 [Compound 16] | 48 nM
4 | Cc1cccc(/C=C(/C(=O)OC(C)(C)C)c2ccc3ncc(C(N)=O)n3c2)n1 [Compound 17a] | 6.6 nM

More lines, now with the values ahead:

Row | IC50 | SMILES
5 | 5.1 nM | Cc1cccc(/C=C\c2ccn3ncc(C(N)=O)c3c2)n1 [Compound 13]
6 | 78 nM | Cc1cccc(/C=C\c2ccc3ncc(C(N)=O)nc3c2)n1 [Compound 14]
7 | 616 nM | Cc1cccc(/C=C(/C(=O)O)c2ccc3ncc(C(N)=O)n3c2)n1 [Compound 17]
8 | 34 nM | Cc1cccc(/C=C(/C(=O)N(C)C)c2ccc3ncc(C(N)=O)n3c2)n1 [Compound 20]
